This note sets out measurements from the supplement of paper PMC12592484.

Structures are written as SMILES.

Common to all, as to test: drug sensitivity score (DSS2, normalised partial AUC of dose-response, 72 h CellTiter-Glo viability) (DSS (dimensionless)); higher = more sensitive (stronger growth inhibition / cytotoxicity); extreme values may be limits of the assay
A general note: Cellular ATP, detected with luciferase, serves as a proxy for viable cell number.

One assay deals with 22Rv1. Put shortly:
(§1)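 Low-passage primary prostate cancer-associated fibroblasts, PF179T, WPMY-1, LNCaP and 22Rv1 cells were seeded into 384-well plates carrying pre-dispensed compounds at five doses covering a 10,000-fold range. After 72 h, viability was read by CellTiter-Glo 2.0 luminescence. Responses were scaled to vehicle and positive-control wells. The drug sensitivity score (DSS2) is a partial area under the fitted logistic dose–response curve divided by the log of its upper asymptote, computed in BREEZE; higher means more sensitive.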

A further assay concerns CAF#1 (primary prostate cancer-associated fibroblasts of myCAF-like type). Put shortly: as §1
The subject of a further assay is CAF#2 (primary prostate cancer-associated fibroblasts of iCAF-like type). Put shortly: as §1
For another assay, the system named is CAF#3 (primary prostate cancer-associated fibroblasts of myCAF-like type). Put shortly: as §1
Another assay has as its system CAF#4 (primary prostate cancer-associated fibroblasts of iCAF-like type). Put shortly:
as §1

The next assay deals with CAF#5 (primary prostate cancer-associated fibroblasts of myCAF-like type). An outline of the steps: as §1
Another assay deals with CAF#6 (primary prostate cancer-associated fibroblasts of iCAF-like type). An outline of the steps: as §1
A further assay deals with CAF#7 (primary prostate cancer-associated fibroblasts of myCAF-like type). Put shortly:
as §1

The subject of another assay is LNCAP. An outline of the steps: as §1
The test system of a further assay is PF179T. Put shortly: as §1
The subject of another assay is WPMY-1. Put shortly: as §1

For `CC[C@]12C=CCN3CC[C@@]4(c5cc([C@@]6(C(=O)OC)C[C@@H]7C[C@@H](C(C)(F)F)CN(Cc8c6[nH]c6ccccc86)C7)c(OC)cc5N(C)[C@H]4[C@@](O)(C(=O)OC)[C@@H]1OC(C)=O)[C@@H]32` [Vinflunine] (tested concentration range 0.1-1000 nM), the drug sensitivity score with 22Rv1 was 4.8; in the assay on CAF#1, 0.9; in the assay with CAF#2, 0.9; with CAF#3 it was 2; in the assay on CAF#4, 0.1; in the assay with CAF#5 it was 1.1. The drug sensitivity score in the assay on CAF#6 turned out to be 2.4; in the assay with CAF#7, 4.4; in the assay on LNCAP, 4.3; in the assay on PF179T, 3.8; with WPMY-1, 5.5.

On to `CCC1=C[C@@H]2CN(C1)Cc1c([nH]c3ccccc13)[C@@](C(=O)OC)(c1cc3c(cc1OC)N(C)[C@H]1[C@@](O)(C(=O)OC)[C@H](OC(C)=O)[C@]4(CC)C=CCN5CC[C@]31[C@@H]54)C2` [Vinorelbine] (tested concentration range 1-10000 nM), for which the drug sensitivity score was 31.3 with 22Rv1; 17.3 in the assay with CAF#1; 20.1 in the assay on CAF#2; 15.3 with CAF#3; 12.6 in the assay with CAF#4; 18.1 with CAF#5. Besides, the drug sensitivity score in the assay on CAF#6 came to 19.6; in the assay on CAF#7, 26; in the assay with LNCAP it was 42; in the assay on PF179T it was 19.7; with WPMY-1, 36.9.

Regarding `CS(=O)(=O)c1ccc(C(=O)Nc2ccc(Cl)c(-c3ccccn3)c2)c(Cl)c1` [Vismodegib] (tested concentration range 1-10000 nM), the drug sensitivity score amounted to 0 in the assay with 22Rv1; 0 in the assay with CAF#1; 0 with CAF#2; 1.5 in the assay on CAF#3; 0 in the assay with CAF#4; 0 in the assay with CAF#5. For the same compound, the drug sensitivity score was 0 in the assay on CAF#6; 0 in the assay with CAF#7; 0.2 with LNCAP; 0 in the assay with PF179T; 0 in the assay with WPMY-1.

In the case of `CNC(=O)c1cccc(-c2ccc3c(N4CCOC[C@@H]4C)nc(N4CCOC[C@@H]4C)nc3n2)c1` [Vistusertib] (tested concentration range 1-10000 nM), the drug sensitivity score in the assay with 22Rv1 came to 19.9; in the assay with CAF#1 it was 17.7; in the assay with CAF#2, 15.8; in the assay with CAF#3 it was 14.8; with CAF#4, 17.9; with CAF#5, 19.6. The drug sensitivity score with CAF#6 was found to be 14; with CAF#7 it was 14.4; in the assay with LNCAP it was 19.4; in the assay with PF179T, 16.2; with WPMY-1, 13.7.

For the compound `CC[C@@H]1C(=O)N(C)c2cnc(Nc3ccc(C(=O)N[C@H]4CC[C@H](N5CCN(CC6CC6)CC5)CC4)cc3OC)nc2N1C(C)C` [Volasertib] (tested concentration range 0.1-1000 nM), the drug sensitivity score in the assay on 22Rv1 is 14.9; in the assay with CAF#1 it was 0.4; in the assay with CAF#2, 5.1; with CAF#3, 4.2; in the assay on CAF#4 it was 0; in the assay on CAF#5, 1.7. The drug sensitivity score in the assay on CAF#6 was determined as 1.9; with CAF#7, 2.9; with LNCAP, 19.3; with PF179T, 5.9; in the assay on WPMY-1, 11.4.

With `O=C(CCCCCCC(=O)Nc1ccccc1)NO` [Vorinostat] (tested concentration range 1-10000 nM), the drug sensitivity score is 9.7 in the assay on 22Rv1; 4 with CAF#1; 6.5 with CAF#2; 6.3 with CAF#3; 4.9 in the assay with CAF#4; 4.1 in the assay with CAF#5. For the same compound, the drug sensitivity score in the assay with CAF#6 came to 4.2; with CAF#7 it was 3.1; with LNCAP it was 10; in the assay on PF179T, 3.4; with WPMY-1, 9.7.

`Oc1nc(-c2ccc(C(F)(F)F)cc2)nc2c1CSCC2` [XAV-939] (tested concentration range 1-10000 nM): the drug sensitivity score is 0 in the assay with 22Rv1; 2.6 in the assay on CAF#1; 5.4 in the assay on CAF#2; 2.5 in the assay on CAF#3; 2.6 with CAF#4; 4.1 in the assay on CAF#5. Moreover, the drug sensitivity score with CAF#6 came out at 4; in the assay with CAF#7, 4.3; in the assay with LNCAP, 2.1; in the assay on PF179T, 2.6; in the assay on WPMY-1, 0.

Take `Cc1sc2c(c1C)C(c1ccc(Cl)cc1)=N[C@@H](CC(=O)NCCCCNC(=O)COc1cccc3c1C(=O)N(C1CCC(=O)NC1=O)C3=O)c1nnc(C)n1-2` (stereo partly drawn) [dBET1] (tested concentration range 1-10000 nM): the drug sensitivity score was found to be 12 in the assay on 22Rv1; 4.5 with CAF#1; 2.7 in the assay with CAF#2; 12 with CAF#3; 6.3 in the assay on CAF#4; 8.2 in the assay with CAF#5. In addition, the drug sensitivity score in the assay on CAF#6 was 9.1; in the assay with CAF#7, 14.2; in the assay on LNCAP it was 9.1; in the assay on PF179T, 0.2; with WPMY-1, 6.
